We go through 12 compounds from ChEMBL document CHEMBL5154636, “Discovery of STAT3 and Histone Deacetylase (HDAC) Dual-Pathway Inhibitors for the Treatment of Solid Cancer” (J Med Chem, 2021).

A short description of data set [1]: Acute toxicity in po dosed ICR mouse assessed as maximum tolerated dose measured after 7 days. The class given is organism-based. The settings on record: in vivo, time 7 day.
Another data set concerns MCF-10A. Description: Cytotoxicity against human MCF-10 A cells assessed as reduction in cell viability at 32 uM incubated for 48 hrs by MTT assay relative to control. The class given is toxicity, cell-based. (In general: Tetrazolium assays rely on reduction of a dye to a coloured formazan, in cell work by metabolically active cells.)
Another data set relates to HCT-116. The data set can be described thus: Cytotoxicity against human HCT-116 cells assessed as reduction in cell viability incubated for 48 hrs by MTT assay. As to conditions: HCT-116, 48 h. The class given is functional, cell-based.
A further data set has as its system MDA-MB-231. Description: Cytotoxicity against human MDA-MB-231 cells assessed as reduction in cell viability incubated for 48 hrs by MTT assay. As to conditions: MDA-MB-231, 48 h. The class given is functional, cell-based.
A further data set concerns L02. Description: Cytotoxicity against human L02 cells assessed as reduction in cell viability at 32 uM incubated for 48 hrs by MTT assay relative to control. As to conditions: l02, 48 h. The data set is classed as toxicity, cell-based.

The structures appear in SMILES notation. pIC50: −log10 of the molar value. Some results are limits rather than exact numbers.

A word on the MTD: it is the highest dose tested that stayed within the study's limit of toxicity. As usually defined, the pIC50 is −log10 of the IC50, conventionally taken in molar units. With `COc1cc(/C=C/c2ccc(O)cc2)cc(OC)c1` [PTEROSTILBENE], the MTD at 168 h in data set [1] is over 400 mg/kg. Moreover, the Activity result in the data set with MCF-10A and in the data set with L02 was “Non-Toxic” throughout. Further, the pIC50 in the data set on HCT-116 was 4.47; with MDA-MB-231 it was 4.51.
Take `COc1cc(/C=C/c2ccc(OCCCC(=O)NO)cc2)cc(OC)c1`: the values for the pIC50 in the data set on HCT-116 and with MDA-MB-231 were 5.28 and 5.41, respectively.
For `COc1cc(/C=C/c2ccc(OCCCCCC(=O)NO)cc2)cc(OC)c1`, the pIC50 in the data set with HCT-116 is 5.39; in the data set on MDA-MB-231, 5.45.
Regarding `COc1cc(/C=C/c2ccc(OCCc3cn(CC(=O)NO)nn3)cc2)cc(OC)c1`, the pIC50 in the data set on HCT-116 was 5.13; in the data set with MDA-MB-231 it was 5.19.
Consider `O=C(CCCCCCC(=O)Nc1ccccc1)NO` [VORINOSTAT], for which the maximum tolerated dose (MTD) at 168 h in data set [1] was over 400 mg/kg. Besides, the Activity came to 24% with MCF-10A and 26% with L02.
As to `COc1cc(/C=C/c2ccc(OCCCCCCCC(=O)NO)cc2)cc(OC)c1`, the negative logarithm of the IC50 (pIC50) in the data set on HCT-116 was 4.90; in the data set on MDA-MB-231, 5.30.
Taken in the same sequence, the figures for `COc1cc(/C=C/c2ccc(OCCCCC(=O)NO)cc2)cc(OC)c1` were 5.47 and 5.38.
Turning to `COc1cc(/C=C/c2ccc(OCc3cccc(C(=O)NO)c3)cc2)cc(OC)c1`, the pIC50 with HCT-116 is 4.86; in the data set on MDA-MB-231 it was 5.04.
Regarding `COc1cc(/C=C/c2ccc(OCc3ccccc3C(=O)NO)cc2)cc(OC)c1`, the figures for the negative-log IC50 (pIC50) in the data set with HCT-116 and in the data set with MDA-MB-231 were 4.86 and 5.14, respectively.
Turning to `COc1cc(/C=C/c2ccc(OCc3ccc(C(=O)NO)cc3)cc2)cc(OC)c1`, the results for the pIC50 with HCT-116 and in the data set with MDA-MB-231 were 4.98 and 5.16, respectively.
Turning to `COc1cc(/C=C/c2ccc(NCc3ccc(/C=C/C(=O)NO)cc3)cc2)cc(OC)c1`, the pIC50 with HCT-116 is 4.95; in the data set with MDA-MB-231, 5.23.
`COc1cc(/C=C/c2ccc(OCCN3CCN(CC(=O)NO)CC3)cc2)cc(OC)c1`: the results for the pIC50 in the data set on HCT-116 and in the data set on MDA-MB-231 were 5.05 and 5.13, respectively.
